Data reported in patent US20160138077A1, “MONITORING AND ASSESSING DEACETYLASE ENZYME ACTIVITY” (THE GENERAL HOSPITAL CORPORATION, priority 2013, published 2016).

Target: T1, HDAC8 (Homo sapiens, UniProt Q9BY41)
T1 construct: purchased Cayman Chemicals
T1 sequence (Q9BY41 1-377): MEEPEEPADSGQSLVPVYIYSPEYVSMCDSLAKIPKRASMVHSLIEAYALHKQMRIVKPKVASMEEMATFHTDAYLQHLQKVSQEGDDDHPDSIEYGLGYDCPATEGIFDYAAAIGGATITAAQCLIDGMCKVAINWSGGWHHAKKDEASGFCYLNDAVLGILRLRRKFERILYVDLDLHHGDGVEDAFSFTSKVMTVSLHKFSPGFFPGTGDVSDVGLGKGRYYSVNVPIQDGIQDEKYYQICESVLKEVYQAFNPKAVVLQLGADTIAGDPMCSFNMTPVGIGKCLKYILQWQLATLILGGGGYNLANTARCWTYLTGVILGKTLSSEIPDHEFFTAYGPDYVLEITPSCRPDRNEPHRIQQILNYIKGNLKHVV
Assay: LCMS characterization of enzymatic deacetylation by HDAC8
Type: biochemical
Conditions: 5 μM probe, 12 hours at 37° C.
Method: The enzymatic cleavage of HP-1 and HP-2 was analyzed by performing LCMS assays with HeLa nuclear extract (AnaSpec), HeLa whole cell lysate (Santa Cruz Inc.), and the following purified HDAC isoforms: 1, 2, 3, 6 and 8 (HDAC1, 3 and 8 from Cayman Chemicals and HDAC2 and 6 provided by Dr. Stephen Haggarty). Solutions containing (i) vehicle with DMSO in HDAC buffer, (ii) 5 μM probe in HDAC buffer, (iii) 5 μM probe and HDAC enzyme/HeLa nuclear extract/HeLa whole cell lysate in HDAC buffer, or (iv) 5 μM probe and HDAC enzyme/HeLa nuclear extract/HeLa whole cell lysate pre-incubated with 10 μM SAHA (Provided by Dr. Stephen Haggarty) in HDAC buffer were incubated for 12 hours at 37° C. Following incubation, a 20 μL aliquot of supernatant from each sample was analyzed by LCMS. […] For HP-1, the (M+H)^+ ion for the corresponding aldehyde (8, DHP-1) was detected, which formed following reaction of the initial imine deacetylation product with water. […] The peak area for each detected compound was measured to determine the % deacetylation of each probe. All assay samples were analyzed in triplicate. […]
LCMS characterization of HDAC enzymatic action on HP-1 and HP-2. […] Following incubation, an aliquot of supernatant from each sample was analyzed by LCMS. […] The peak area for each detected compound was measured to determine the % deacetylation of each probe (full experimental details in Example 1).

## CC(=O)NC=CCCCCNC(=O)CCCCCNc1ccc([N+](=O)[O-])c2nonc12 [HP-1]
HDAC8, +SAHA (10 μM)
  % HP-1 to DHP-1: 0%
HDAC8, −SAHA
  % HP-1 to DHP-1: 0%
